Values of other authors as cited in US6541487B1, “PDE III inhibitors for treating sexual dysfunction” (R.T. Alamo Ventures I, LLC, priority 1998, dated 2003).

Assays:
corpus cavernosum = settings: intracavernosal injection; severe atherosclerosis not involved
[1] = for priapism: treatment of impotence
[2] = test system: plasma high density lipoprotein cholesterol; settings: in vivo
[3] = following oral administration
[4] = not given; remark: listed apart in the source
[5] = test system: coronary vascular smooth muscle tissue

CC(COc1ccccc1)N(CCCl)Cc1ccccc1 (stereo not drawn) [phenoxybenzamine]
erection after injection into a corpus cavernosum (corpus cavernosum): erection sufficient for vaginal penetration
carcinogenicity ([1]; in vivo): carcinogen
priapism [1]: often results in priapism

O=C1CCc2cc(OCCCCc3nnnn3C3CCCCC3)ccc2N1 [cilostazol, 6-[4-(1-cyclohexyl-5-tetrazoyl)butoxy]-1,2,3,4-tetrahydro-2-oxoquinoline]
plasma high density lipoprotein cholesterol [2]: increasing
time of peak plasma concentrations of cilostazol [3]: 2 to 4 h
platelet aggregation (platelet aggregation): suppresses

COc1ccc(Cc2nccc3cc(OC)c(OC)cc23)cc1OC [papaverine]
erection after injection into a corpus cavernosum (corpus cavernosum): erection sufficient for vaginal penetration
priapism [1]: often results in priapism

Cn1cc([S+](C)[O-])c(=O)c2ccc(F)cc21 (stereo not drawn) [flosequinan, 7-fluoro-1-methyl-3-methylsulphinyl-4-quinolone]
solubility in organic solvents: soluble in many organic solvents
solubility in water: water soluble
time of peak plasma concentrations of flosequinan ([4]; following oral administration): 1 to 2 h
time of peak metabolite plasma levels ([4]; following oral dosage, metabolite of flosequinan): about seven
mean absolute bioavailability ([4]; oral, single dose per day of 50 milligrams or 75 milligrams): 72%
inhibition of PDE III (PDE III): selective inhibitor

Cc1ccc(N(CC2=NCCN2)c2cccc(O)c2)cc1 [phentolamine]
erection after injection into a corpus cavernosum (corpus cavernosum): erection sufficient for vaginal penetration

CCCc1nn(C)c2c(=O)[nH]c(-c3cc(S(=O)(=O)N4CCN(C)CC4)ccc3OCC)nc12 [Sildenafil]
cyclic AMP levels [5]: no change
cyclic GMP levels [5]: selectively increases
inhibition of PDE III (PDE III): negligible inhibition
